Test results reported in patent publication US8686022B2, “7-(piperazine-1-ymethyl)-1H-indole-2-carboxylic acid (phenyl)-amide derivatives and allied compounds as p38 MAP kinase inhibitors for the treatment of respiratory diseases” (Boehringer Ingelheim International GmbH, priority 2008, dated 2014).
In brackets after ≈: the same amount, converted by molar mass.

Key:
[1] = target: cytochrome P450 2C9 (Homo sapiens, UniProt P11712); test: Determining the cyp2C9 activity (O-demethylation of [O-methyl-14C]-naproxen); type: in vitro ADME; details: human recombinant cytochrome P450 2C9; 37° C.; <0.4 μM when inhibition >50% at lowest concentration; read-out: CYP 2C9 IC50
cytochrome P450 2C9, sequence (P11712 whole entry): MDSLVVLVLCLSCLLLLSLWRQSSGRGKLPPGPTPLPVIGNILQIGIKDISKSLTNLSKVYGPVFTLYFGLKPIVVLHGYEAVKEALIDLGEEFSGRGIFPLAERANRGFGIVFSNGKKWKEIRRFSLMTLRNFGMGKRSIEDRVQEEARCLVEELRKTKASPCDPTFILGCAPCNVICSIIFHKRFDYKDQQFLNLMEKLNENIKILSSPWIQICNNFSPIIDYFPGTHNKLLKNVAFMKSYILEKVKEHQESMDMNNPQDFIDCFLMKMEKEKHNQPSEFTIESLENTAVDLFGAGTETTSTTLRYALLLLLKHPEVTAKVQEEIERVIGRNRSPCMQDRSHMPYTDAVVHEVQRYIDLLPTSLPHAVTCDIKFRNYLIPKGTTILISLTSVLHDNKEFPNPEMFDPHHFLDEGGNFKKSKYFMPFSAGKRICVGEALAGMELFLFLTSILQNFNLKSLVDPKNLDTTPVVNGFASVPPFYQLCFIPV
Description: Determining the cyp2C9 Activity:
The assay is carried out in a robot system with 96-well plates. The final incubation volume is 200 μl of TRIS-Puffer (0.1 M), magnesium chloride (5 mM), recombinant protein (40 pmol/ml), ^14C-labelled naproxen (80 μM) and the test compound in one of 4 concentrations (50 μM, 10 μM, 2 μM and 0.4 μM) as a duplicate in each case. After a short preincubation period the reactions are started by the addition of the cofactor (NADPH, 1 mM) and ended after 15 min by the addition of 50 μl of a 10% aqueous trichloroacetic acid solution. One aliquot of the incubate is transferred onto a 96-well solid phase extraction plate and extracted. The ^14C-formaldehyde formed during the reaction is not retained on the solid phase extraction plate and is thus separated from the unmetabolised substrate by washing the solid phase extraction plate with water. One aliquot of the eluate is transferred into a well plate suitable for liquid scintillation. […] The IC50 is determined by the least squares method using the following formula: control activity=(100% control activity/(1+(I/IC50)S))−B where I=Inhibitor concentration S=Pitch B=Background activity
When the inhibition of the reaction is >50% even at the lowest concentration of the test compound, the IC50 is given as <0.4 μM.

[2] = Determining the solubility (saturated solution in McIlvaine buffer pH 7.4, UV spectroscopy); type: physicochemical; details: pH 7.4, aqueous buffer, thermodynamic from solid, shaken 2 hours, 0.75 mg solid in 0.75 ml
Description: Determining the Solubility:
Saturated solutions are prepared in suitable well dishes by adding 0.75 ml of a McIlvaine buffer (pH 7.4) to the well in question containing 0.75 mg of solid of an active substance. The wells are shaken for 2 hours and then filtration is carried out through a suitable filter membrane (typically polytetrafluoroethylene with a pore size of 0.45 μm). Filter absorption is prevented by discarding the first few drops of filtrate. The amount of active substance dissolved is determined by UV spectroscopy.

[3] = target: p38 MAP-kinase (Homo sapiens, UniProt Q16539); test: p38 MAP-kinase enzymatic assay (phosphorylation of GST-tagged ATF2, chemoluminescence); type: biochemical; details: inhibitor concentration 1 μM; activated p38 MAP-kinase 1 nM; ATP 100 μM; read-out: p38 (% Inh @ 1 μM)
p38 MAP-kinase, sequence (Q16539 whole entry): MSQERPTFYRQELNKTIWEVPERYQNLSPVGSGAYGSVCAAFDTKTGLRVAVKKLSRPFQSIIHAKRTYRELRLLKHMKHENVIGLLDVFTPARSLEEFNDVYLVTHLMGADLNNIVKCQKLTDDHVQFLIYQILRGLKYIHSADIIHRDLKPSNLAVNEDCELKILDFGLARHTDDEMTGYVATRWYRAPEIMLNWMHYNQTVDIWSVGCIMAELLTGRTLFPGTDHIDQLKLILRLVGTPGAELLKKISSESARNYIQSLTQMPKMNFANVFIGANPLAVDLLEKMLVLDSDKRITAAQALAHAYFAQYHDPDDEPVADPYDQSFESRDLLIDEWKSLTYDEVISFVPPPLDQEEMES
Description: In this, the amount of a substrate phosphorylated by the kinase is quantified. The test is carried out as follows:
The kinase reaction is carried out in the presence of HEPES (20 mM, pH 7), MgCl2 (10 mM), DTT (1 mM) and TWEEN20 (0.01%). First, dimethylsulphoxide or inhibitor (final concentration: 1 μM) dissolved in dimethylsulphoxide are placed in a reaction vessel. Then the activated p38 MAP-kinase (final concentration 1 nM) is added and the mixture is incubated for 4 h at ambient temperature. Then a mixture of substrate (GST-tagged ATF2) and ATP is added and everything is incubated together for a further hour (final concentration ATP: 100 μM; final concentration ATF2: 10 nM).
The concentration of phosphorylated ATF2 is quantified by chemoluminescence-induced light emission. For this, a glutathione donor bead (final concentration: 5 μg/ml) which binds to the gluthathione on the ATF2 and phospho-ATF2 antibodies are added to the reaction mixture (final concentration: 3 nM; this binds the phosphate group added by the kinase reaction) to which a Protein A Acceptor Bead (final concentration: 5 μg/ml) binds. These components are dissolved in a buffer which contains 20 mM HEPES pH 7.0, 200 mM NaCL, 80 mM EDTA as well as 0.3% BSA. This reaction mixture is incubated in the dark for 1 hour at ambient temperature. When these beads come physically close, visible light is emitted which is measured in a photometer at 520-620 nm.
To determine the inhibitory activity of the compounds according to the invention a calculation is made to determine the percentage by which the kinase activity is inhibited at a fixed inhibitor concentration of 1 μM. The maximum activity is determined by non-inhibited kinase. The minimum activity or nonspecific background activity is determined using a reaction mixture without kinase.
Table 2 summarises the degree of inhibition of the enzyme p38 MAP-kinase—as described hereinbefore—mediated by the compounds according to the invention detailed in the section “Preparation of the final compounds”.

Row | SMILES | IC50 [1] [nM] | solubility at 2 h [2] [µg/mL] | inhibition at 1 µM [3] [%]
1 | COc1c(NC(=O)c2cc3cccc(CN4CCN(C(=O)[C@H]5C[C@@H](OC)CN5C)CC4)c3n2C)cc(C(C)(C)C)cc1NS(C)(=O)=O [1(9), 7-[4-((2R,4R)-4-methoxy-1-methyl-pyrrolidine-2-carbonyl)-piperazin-1-ylmethyl]-1-methyl-1H-indole-2-carboxylic acid(5-tert-butyl-3-methanesulphonylamino-2-methoxy-phenyl)-amide] | 1120 | 440 (≈ 658 µM) | 98.9
2 | COc1c(NC(=O)c2cc3cccc(CN4CCN(C(=O)C5(C)CC5)CC4)c3n2C)cc(C(C)(C)C)cc1NS(C)(=O)=O [Vb, reference compound] | < 400 | < 1 | 99.1
3 | CCCS(=O)(=O)Nc1cc(C(C)(C)C)cc(NC(=O)c2cc3cccc(CN4CCN(C(=O)[C@@H]5CCCN5C)CC4)c3n2C)c1OC [Example 13, (S)-1-methyl-7-[4-(1-methyl-pyrrolidine-2-carbonyl)-piperazin-1-ylmethyl]-1H-indole-2-carboxylic acid-[5-tert-butyl-2-methoxy-3-(propane-1-sulphonylamino)-phenyl]-amide] | 500 | 17 (≈ 25.5 µM) | 99.1
4 | COc1c(NC(=O)c2cc3cccc(CN4CCN(C(=O)[C@@H]5CCCN5C)CC4)c3n2C)cc(C(C)(C)C)cc1C(N)=O [10(4), (S)-1-methyl-7-[4-(1-methyl-pyrrolidine-2-carbonyl)-piperazin-1-ylmethyl]-1H-indole-2-carboxylic acid-(5-tert-butyl-3-carbamoyl-2-methoxy-phenyl)-amide] | 440 | 370 (≈ 628 µM) | 99.1
5 | COc1c(NC(=O)c2cc3cccc(CN4CCN(C(=O)C5CCN(C)CC5)CC4)c3n2C)cc(C(C)(C)C)cc1NS(C)(=O)=O [Example 1, 1-methyl-7-[4-(1-methyl-piperidine-4-carbonyl)-piperazin-1-ylmethyl]-1H-indole-2-carboxylic acid(5-tert-butyl-3-methanesulphonylamino-2-methoxy-phenyl)-amide] | 2420 | 360 (≈ 551 µM) | 98.9
6 | CCN(CC)Cc1cc(C(C)(C)C)cc(NC(=O)c2cc3cccc(CN4CCN(C(=O)[C@@H]5CCCN5C)CC4)c3n2C)c1OC [9(2), (S)-1-methyl-7-[4-(1-methyl-pyrrolidine-2-carbonyl)-piperazin-1-ylmethyl]-1H-indole-2-carboxylic acid-(5-tert-butyl-3-diethylaminomethyl-2-methoxy-phenyl)-amide] | 7760 | 860 (≈ 1360 µM) | 98.2
7 | COc1c(NC(=O)c2cc3cccc(CN4CCN(C(=O)C5CC5)CC4)c3n2C)cc(C(C)(C)C)cc1NS(C)(=O)=O [Vc, reference compound] | < 400 | < 1 | 99.1
8 | COc1c(C[S+](C)[O-])cc(C(C)(C)C)cc1NC(=O)c1cc2cccc(CN3CCN(C(=O)[C@@H]4CCCN4C)CC3)c2n1C (stereo partly drawn) [11(6), 1-methyl-7-[4-((2S)-1-methyl-pyrrolidine-2-carbonyl)-piperazin-1-ylmethyl]-1H-indole-2-carboxylic acid-(5-tert-butyl-3-methanesulphinylmethyl-2-methoxy-phenyl)-amide] | 3180 | 680 (≈ 1090 µM) | 99.6
9 | COc1c(NC(=O)c2cc3cccc(CC4CCCN(C(=O)[C@H]5CCCN5C)CC4)c3n2C)cc(C(C)(C)C)cc1NS(C)(=O)=O (stereo partly drawn) [1(20), 1-methyl-7-[1-((2R)-1-methyl-pyrrolidine-2-carbonyl)-azepan-4-ylmethyl]-1H-indole-2-carboxylic acid-(5-tert-butyl-3-methanesulphonylamino-2-methoxy-phenyl)-amide] | 2590 | 124 (≈ 190 µM) | 99.1
10 | COc1c(NC(=O)c2cc3cccc(CN4CCN(C(=O)C5CCCN(C)C5)CC4)c3n2C)cc(C(C)(C)C)cc1NS(C)(=O)=O (stereo not drawn) [Example 4, 1-methyl-7-[4-(1-methyl-piperidine-3-carbonyl)-piperazin-1-ylmethyl]-1H-indole-2-carboxylic acid (5-tert-butyl-3-methanesulphonylamino-2-methoxy-phenyl)-amide] | 440 | 78 (≈ 119 µM) | 99.4
11 | COc1c(CN2CCN(C(C)C)CC2)cc(C(C)(C)C)cc1NC(=O)c1cc2cccc(CN3CCN(C(=O)[C@@H]4CCCN4C)CC3)c2n1C [9(7), (S)-1-methyl-7-[4-(1-methyl-pyrrolidine-2-carbonyl)-piperazin-1-ylmethyl]-1H-indole-2-carboxylic acid-[5-tert-butyl-3-(4-isopropyl-piperazin-1-ylmethyl)-2-methoxy-phenyl]-amide] | 44700 | 880 (≈ 1280 µM) | 98.8
12 | COc1c(NC(=O)c2cc3cccc(CN4CCN(C(=O)[C@@H]5CCCN5C)CC4)c3n2C)cc(C(F)(F)C(F)(F)F)cc1NS(C)(=O)=O [Example 14, (S)-1-methyl-7-[4-(1-methyl-pyrrolidine-2-carbonyl)-piperazin-1-ylmethyl]-1H-indole-2-carboxylic acid-(3-methanesulphonylamino-2-methoxy-5-pentafluoroethyl-phenyl)-amide] | 1430 | 27 (≈ 38.5 µM) | 98.8
13 | COc1c(NC(=O)c2cc3cccc(CN4CCN(C(=O)C5CCN5C)CC4)c3n2C)cc(C(C)(C)C)cc1NS(C)(=O)=O (stereo not drawn) [1(5), 1-methyl-7-[4-(1-methyl-azetidine-2-carbonyl)-piperazin-1-ylmethyl]-1H-indole-2-carboxylic acid(5-tert-butyl-3-methanesulphonylamino-2-methoxy-phenyl)-amide] | 1630 | 670 (≈ 1070 µM) | 99
14 | CCCC(=O)Nc1cc(C(C)(C)C)cc(NC(=O)c2cc3cccc(CN4CCN(C(=O)[C@@H]5CCCN5C)CC4)c3n2C)c1OC [12(1), (S)-1-methyl-7-[4-(1-methyl-pyrrolidine-2-carbonyl)-piperazin-1-ylmethyl]-1H-indole-2-carboxylic acid-(5-tert-butyl-3-butyrylamino-2-methoxy-phenyl)-amide] | 960 | 44 (≈ 69.7 µM) | 87.7
15 | COc1c(NC(=O)c2cc3cccc(CC4CCN(C(=O)[C@@H]5CCCN5C)CC4)c3n2C)cc(C(C)(C)C)cc1NS(C)(=O)=O [1(7), (S)-1-methyl-7-[1-(1-methyl-pyrrolidine-2-carbonyl)-piperidin-4-ylmethyl]-1H-indole-2-carboxylic acid(5-tert-butyl-3-methanesulphonylamino-2-methoxy-phenyl)-amide] | 780 | 170 (≈ 267 µM) | 98.9
16 | COc1c(NC(=O)c2cc3cccc(CN4CCN(C(=O)[C@@H]5C[C@H](O)CN5C)CC4)c3n2C)cc(C(C)(C)C)cc1NS(C)(=O)=O [1(12), 7-[4-((2S,4S)-4-hydroxy-1-methyl-pyrrolidine-2-carbonyl)-piperazin-1-ylmethyl]-1-methyl-1H-indole-2-carboxylic acid(5-tert-butyl-3-methanesulphonylamino-2-methoxy-phenyl)-amide] | 1550 | 140 (≈ 214 µM) | 98.9
